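48-hour exposure; five concentrations; linearly interpolated endpoints. Definition used: TGI = concentration required for complete inhibition of growth.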
How the values were obtained:
Assay in all cases: inhibition of tumour cell growth, NCI panel, 48 h
[1] = tested on: SF-295 CNS
[2] = tested on: RXF 393 renal
[3] = tested on: M14 melanoma
[4] = tested on: MDA-N
[5] = tested on: K-562 leukemia
[6] = tested on: OVCAR-3 ovarian
[7] = tested on: OVCAR-8 ovarian
[8] = tested on: UACC-257 melanoma
[9] = tested on: NCI-H460 lung
[10] = tested on: SW-620 colon
[11] = tested on: NCI/ADR-RES ovarian
[12] = tested on: A498 renal
[13] = tested on: RPMI-8226 leukemia
[14] = tested on: SK-MEL-2 melanoma
[15] = tested on: DU-145 prostate
[16] = tested on: ACHN renal
[17] = tested on: 786-0 renal
[18] = tested on: TK-10 renal
[19] = tested on: U251 CNS
[20] = tested on: OVCAR-4 ovarian
[21] = tested on: CAKI-1 renal
[22] = tested on: UO-31 renal
[23] = tested on: SNB-75 CNS
[24] = tested on: T-47D breast
[25] = tested on: HOP-62 NSCLC
[26] = tested on: CCRF-CEM leukemia
[27] = tested on: HCT-116 colon
[28] = tested on: MOLT-4 leukemia
[29] = tested on: OVCAR-5 ovarian
[30] = tested on: SNB-19 CNS
[31] = tested on: EKVX NSCLC
[32] = tested on: UACC-62 melanoma
[33] = tested on: IGROV1 ovarian
[34] = tested on: PC-3 prostate
[35] = tested on: HOP-92 NSCLC
[36] = tested on: BT-549 breast
[37] = tested on: SN12C renal
[38] = tested on: MDA-MB-231 breast
[39] = tested on: MALME-3M melanoma
[40] = tested on: LOX IMVI melanoma
[41] = tested on: SR leukemia
[42] = tested on: SK-MEL-5 melanoma
[43] = tested on: HCT-15 colon
[44] = tested on: SF-268 CNS
[45] = tested on: KM12 colon
[46] = tested on: SK-MEL-28 melanoma
[47] = tested on: HS 578T breast
[48] = tested on: MDA-MB-435
[49] = tested on: SF-539 CNS
[50] = tested on: COLO 205 colon
[51] = tested on: HT29 colon
[52] = tested on: HL-60(TB) leukemia
[53] = tested on: MCF7 breast
[54] = tested on: NCI-H226 lung
[55] = tested on: SK-OV-3 ovarian
[56] = tested on: A549 NSCLC
[57] = tested on: NCI-H522 lung
[58] = tested on: HCC-2998 colon
[59] = tested on: NCI-H23 lung

Measured: TGI

O=C1Nc2ccccc2S/C1=C\c1cccc(C(F)(F)F)c1
37.4 µM: [21]
not listed: [58] | [59]
> 100 µM: all other assays above

O=c1oc2nc(-c3ccccc3)cc(C(F)(F)F)c2n1Cc1ccccc1
> 43.5 µM: [33]
9.48 µM: [12]
> 26.1 µM: [26]
> 59.6 µM: [59]
98.5 µM: [39]
> 30.8 µM: [13]
> 82.9 µM: [3]
> 60.4 µM: [11]
3.13 µM: [48]
> 45 µM: [24]
> 75.3 µM: [47]
2.68 µM: [4]
> 30.3 µM: [2]
not listed: [23] | [52]
> 100 µM: all other assays above

Reference: PubChem BioAssay (NCI)
